Counter-ions that a name gives are not always drawn.

The target in the first assay is T1, small-conductance Ca2+-activated K+ channels (SK channels, subtype 2) (Homo sapiens, UniProt Q9H2S1).
T1 construct: expressed in transfected cells; host or cells: HEK293
The experiment in a line: whole-cell patch-clamp of ionic current through SK2 channels in HEK293 cells (SC100). The settings on record: concentration that increases the basal current by 100%; HEK293 cells expressing SK2 channels. The class given is cell-based. How it is done: The biological activity was determined as follows. The ionic current through small-conductance Ca^2+-activated K^+ channels (SK channels, subtype 2) was measured using the whole-cell configuration of the patch-clamp technique in a patch-clamp set-up using HEK293 tissue culture cells expressing SK2 channels as described in Hougaard et al., British Journal of Pharmacology 151, 655-665, May 8, 2007, the entire teachings of which are incorporated herein by reference. In one aspect, a compound is defined to be an SK PAM if the compound increases current in this assay, for example, if the SC100 value of the compound is less than or equal to 10 μM as determined by this assay. The SC100 value is defined to be the concentration of compound that increases the basal current by 100%.
For orientation: The patch-clamp technique gives a direct electrical read-out from membranes.
As to `Cc1cc(C)n(-c2nc(NC3CCC(F)(F)CC3)cc(N3CCOC(CO)C3)n2)n1` (racemic) [Compound 110, (4-(6-((4,4-difluorocyclohexyl)amino)-2-(3,5-dimethyl-1H-pyrazol-1-yl)pyrimidin-4-yl)morpholin-2-yl)methanol], the SC100 entry is “++ (++ means 200 nM-1000 nM)”. On the same count and under the same terms, as for `Cc1cc(C)n(-c2cc(NC3CCN(C)C3=O)cc(NC3CCC(F)(F)CC3)n2)n1` (racemic) [Compound 135, 3-((2-((4,4-difluorocyclohexyl)amino)-6-(3,5-dimethyl-1H-pyrazol-1-yl)pyridin-4-yl)amino)-1-methylpyrrolidin-2-one], the entry is “+ (+ means >1 uM)”; as for `Cc1csc(-c2nc(NC3CCC(F)(F)CC3)cc(C(C)O)n2)n1` (racemic) [Compound 362, 1-(6-((4,4-difluorocyclohexyl)amino)-2-(4-methylthiazol-2-yl)pyrimidin-4-yl)ethan-1-ol], “++ (++ means 200 nM-1000 nM)”. For the molecule `Cc1cc(C)n(-c2nc(NC3CCC(F)(F)CC3)cc([C@H]3COCC[C@H]3O)n2)n1` (relative stereo) [Compound 257, (−)-3-(6-((4,4-difluorocyclohexyl)amino)-2-(3,5-dimethyl-1H-pyrazol-1-yl)pyrimidin-4-yl)tetrahydro-2H-pyran-4-ol], the SC100 result is recorded as “+ (+ means >1 uM)”. `Cc1cc(C)n(-c2nc(NC3CCC(F)(F)CC3)cc(N3CCO[C@@H](CO)C3)n2)n1` (single isomer, unassigned) [Compound 112, (+)-(4-(6-((4,4-difluorocyclohexyl)amino)-2-(3,5-dimethyl-1H-pyrazol-1-yl)pyrimidin-4-yl)morpholin-2-yl)methanol]: the SC100 entry is reported as “++ (++ means 200 nM-1000 nM)”.

Turning to `Cc1cc(C)n(-c2nc(NC3CCC(F)(F)CC3)cc(N3CCO[C@H](CO)C3)n2)n1` (single isomer, unassigned) [Compound 113, (−)-(4-(6-((4,4-difluorocyclohexyl)amino)-2-(3,5-dimethyl-1H-pyrazol-1-yl)pyrimidin-4-yl)morpholin-2-yl)methanol], the SC100 result is on record as “++ (++ means 200 nM-1000 nM)”. Consider `Cc1cc(C)n(-c2nc(NC3CCC(F)(F)CC3)cc(N[C@H]3CCN(C)C3=O)n2)n1` (single isomer, unassigned) [Compound 128, (+)-3-((6-((4,4-difluorocyclohexyl)amino)-2-(3,5-dimethyl-1H-pyrazol-1-yl)pyrimidin-4-yl)amino)-1-methylpyrrolidin-2-one], for which the SC100 entry is listed as “+ (+ means >1 uM)”.

For the molecule `Cc1cc(C)n(-c2cc(N[C@H]3CCN(C)C3=O)cc(NC3CCC(F)(F)CC3)n2)n1` (single isomer, unassigned) [Compound 138, (+)-3-((2-((4,4-difluorocyclohexyl)amino)-6-(3,5-dimethyl-1H-pyrazol-1-yl)pyridin-4-yl)amino)-1-methylpyrrolidin-2-one], the SC100 entry is “+ (+ means >1 uM)”. Consider `Cc1cc(C)n(-c2cc(N[C@@H]3CCN(C)C3=O)cc(NC3CCC(F)(F)CC3)n2)n1` (single isomer, unassigned) [Compound 139, (−)-3-((2-((4,4-difluorocyclohexyl)amino)-6-(3,5-dimethyl-1H-pyrazol-1-yl)pyridin-4-yl)amino)-1-methylpyrrolidin-2-one], for which the SC100 result is reported as “+ (+ means >1 uM)”. Turning to `Cc1cc(C)n(-c2nc(NC3CCC(F)(F)CC3)cc([C@@H](C)O)n2)n1` (single isomer, unassigned) [Compound 198, (−)1-(6-((4,4-difluorocyclohexyl)amino)-2-(3,5-dimethyl-1H-pyrazol-1-yl)pyrimidin-4-yl)ethan-1-ol], the SC100 result is “+ (+ means >1 uM)”.

For `Cc1cc(C)n(-c2nc(N[C@H]3CCCC(F)(F)C3)cc([C@@H](C)O)n2)n1` (single isomer, unassigned) [Compound 354], the SC100 entry is “+ (+ means >1 uM)”. On to `Cc1csc(-c2nc(NC3CCC(F)(F)CC3)cc([C@H](C)O)n2)n1` (single isomer, unassigned) [Compound 363], for which the SC100 result was “++ (++ means 200 nM-1000 nM)”. As for `Cc1csc(-c2nc(NC3CCC(F)(F)CC3)cc([C@@H](C)O)n2)n1` (single isomer, unassigned) [Compound 364], the SC100 result is “++ (++ means 200 nM-1000 nM)”. With `Cc1cc(C)n(-c2nc(NC3CCC(F)(F)CC3)cc(NC(C(N)=O)C(C)C)n2)n1` (stereo in doubt) [Compound 164, (R)-2-((6-((4,4-difluorocyclohexyl)amino)-2-(3,5-dimethyl-1H-pyrazol-1-yl)pyrimidin-4-yl)amino)-3-methylbutanamide], the SC100 result is given as “+ (+ means >1 uM)”.

Take `Cc1cc(C)n(-c2nc(NC3CCC(F)(F)CC3)cc(N3CCNC(C(N)=O)C3)n2)n1` (stereo not shown) [Compound 100, 4-(6-((4,4-difluorocyclohexyl)amino)-2-(3,5-dimethyl-1H-pyrazol-1-yl)pyrimidin-4-yl)piperazine-2-carboxamide]: the SC100 entry is recorded as “+ (+ means >1 uM)”. Consider `CC(=O)N1CCN(c2cc(-n3nc(C)cc3C)nc(NC3CCC(F)(F)CC3)n2)CC1` [Compound 101, 1-(4-(2-((4,4-difluorocyclohexyl)amino)-6-(3,5-dimethyl-1H-pyrazol-1-yl)pyrimidin-4-yl)piperazin-1-yl)ethan-1-one], for which the SC100 entry is “++ (++ means 200 nM-1000 nM)”. As to `CC(=O)N1CCN(c2cc(NC3CCC(F)(F)CC3)nc(-n3nc(C)cc3C)n2)CC1` [Compound 102, 1-(4-(6-((4,4-difluorocyclohexyl)amino)-2-(3,5-dimethyl-1H-pyrazol-1-yl)pyrimidin-4-yl)piperazin-1-yl)ethan-1-one], the SC100 result is on record as “++ (++ means 200 nM-1000 nM)”. For the molecule `Cc1cc(C)n(-c2nc(NC3CCC(F)(F)CC3)cc(N3C[C@H]4CC3CN4)n2)n1` [Compound 103, 6-((4R)-2,5-diazabicyclo [2.2.1]heptan-2-yl)-N-(4,4-difluorocyclohexyl)-2-(3,5-dimethyl-1H-pyrazol-1-yl)pyrimidin-4-amine hydrochloride salt], the SC100 result is “+ (+ means >1 uM)”. Turning to `Cc1cc(C)n(-c2cc(N3C[C@H]4C[C@@H]3CN4)nc(NC3CCC(F)(F)CC3)n2)n1` [Compound 104, 4-((1R,4R)-2,5-diazabicyclo[2.2.1]heptan-2-yl)-N-(4,4-difluorocyclohexyl)-6-(3,5-dimethyl-1H-pyrazol-1-yl)pyrimidin-2-amine], the SC100 entry is “++ (++ means 200 nM-1000 nM)”. For the molecule `Cc1cc(C)n(-c2nc(NC3CCC(F)(F)CC3)cc(N3CC4(COC4)C3)n2)n1` [Compound 105, N-(4,4-difluorocyclohexyl)-2-(3,5-dimethyl-1H pyrazol-1-yl)-6-(2-oxa-6-azaspiro[3.3]heptan-6-yl)pyrimidin-4-amine], the SC100 result is “+ (+ means >1 uM)”. For the molecule `Cc1cc(C)n(-c2cc(N3CCNC(C(N)=O)C3)nc(NC3CCC(F)(F)CC3)n2)n1` (stereo not shown) [Compound 106, 4-(2-((4,4-difluorocyclohexyl)amino)-6-(3,5-dimethyl-1H-pyrazol-1-yl)pyrimidin-4-yl)piperazine-2-carboxamide], the SC100 entry is listed as “++ (++ means 200 nM-1000 nM)”. For the molecule `Cc1cc(C)n(-c2cc(NC(C)C(N)=O)nc(NC3CCC(F)(F)CC3)n2)n1` (stereo not shown) [Compound 107, 2-((2-((4,4-difluorocyclohexyl)amino)-6-(3,5-dimethyl-1H-pyrazol-1-yl)pyrimidin-4-yl)amino)propanamide], the SC100 result was “+ (+ means >1 uM)”.

`Cc1cc(C)n(-c2cc(N3CC4(COC4)C3)nc(NC3CCC(F)(F)CC3)n2)n1` [Compound 108, N-(4,4-difluorocyclohexyl)-4-(3,5-dimethyl-1H-pyrazol-1-yl)-6-(2-oxa-6-azaspiro[3.3]heptan-6-yl)pyrimidin-2-amine]: the SC100 entry was “+ (+ means >1 uM)”. Regarding `Cc1cc(C)n(-c2nc(NC3CCC(F)(F)CC3)cc(NC(C)C(N)=O)n2)n1` (stereo not shown) [Compound 109, 2-((6-((4,4-difluorocyclohexyl)amino)-2-(3,5-dimethyl-1H-pyrazol-1-yl)pyrimidin-4-yl)amino)propanamide], the SC100 result is “+ (+ means >1 uM)”. Consider `CCc1cnc(-n2nc(C)cc2C)nc1NC1CCC(F)(F)CC1` [Compound 111, N-(4,4-difluorocyclohexyl)-2-(3,5-dimethyl-1H-pyrazol-1-yl)-5-ethylpyrimidin-4-amine], for which the SC100 result is reported as “+ (+ means >1 uM)”. In the case of `Cc1cc(C)n(-c2cc(N3CCOC(C(N)=O)C3)nc(NC3CCC(F)(F)CC3)n2)n1` (stereo not shown) [Compound 114, 4-(2-((4,4-difluorocyclohexyl)amino)-6-(3,5-dimethyl-1H-pyrazol-1-yl)pyrimidin-4-yl)morpholine-2-carboxamide], the SC100 result is “+ (+ means >1 uM)”. Still for that read-out and setting: as for `Cc1cc(C)n(-c2nc(NC3CCC(F)(F)CC3)cc(N3CCOC(C(N)=O)C3)n2)n1` (stereo not shown) [Compound 115, 4-(6-((4,4-difluorocyclohexyl)amino)-2-(3,5-dimethyl-1H-pyrazol-1-yl)pyrimidin-4-yl)morpholine-2-carboxamide], the entry is “+ (+ means >1 uM)”. For `Cc1cc(C)n(-c2nc3c(c(NC4CCC(F)(F)CC4)n2)CCN(Cc2ccccc2)C3)n1` [Compound 116], the SC100 result was “++ (++ means 200 nM-1000 nM)”.

The same assay, now with this note: whole-cell patch-clamp, HEK293 cells expressing SK2 channels; concentration that increases the basal current by 100%.
`Cc1csc(-c2cc(N(C)C)cc(NC3CCC(F)(F)CC3)n2)n1`: the “SC100 (μM)” value is reported as “++ (++ means 200 nM-1000 nM)”.

With `FCc1ccn(-c2nc(NC3CC=CCC3)cc(N3CCOCC3)n2)n1` (stereo not shown), the “SC100 (μM)” value was “+ (+ means >1 uM)”. For `FCc1ccn(-c2nc(NC3CCC(F)CC3)cc(N3CCOCC3)n2)n1` (stereo not shown), the “SC100 (μM)” value is “+ (+ means >1 uM)”.

Source of the values: patent US10774064B2 (Cadent Therapeutics, Inc., priority 2016, dated 2020).
